Publication doi:10.1101/2020.07.01.182642v1 (biorxiv, 2020)

Experiments:
CLK3 (R134-T484) [1] = molecular target: T1, CLK3 (R134-T484) (Homo sapiens, UniProt P49761, A319V); settings: binder
CLK1 (H148-I484) [2] = molecular target: T2, CLK1 (H148-I484) (Homo sapiens, UniProt P49759); settings: binder
CLK3 (R134-T484) [3] = molecular target: T3, CLK3 (R134-T484) (Homo sapiens, UniProt P49761); settings: binder
CLK1 (H148-I484) [4] = molecular target: CLK1 (H148-I484) (Homo sapiens, UniProt P49759, V324A); settings: binder
CLK1 (full-length) [5] = molecular target: CLK1 (full-length) (Homo sapiens, UniProt P49759); experiment: cell-based
CLK1 (H148-I484) [6] = molecular target: T2, CLK1 (H148-I484); settings: binder; remark: listed apart in the source
CLK3 (R134-T484) [7] = molecular target: T3, CLK3 (R134-T484); settings: binder; remark: listed apart in the source
CLK1 (full-length) [8] = molecular target: CLK1 (full-length) (Homo sapiens, UniProt P49759, V324A); experiment: cell-based
CLK3 (R134-T484) [9] = molecular target: T1, CLK3 (R134-T484); experiment: Omnia kinase assay; format: biochemical
CLK3 = CLK3 (Homo sapiens, UniProt P49761); settings: binder
CLK1 = CLK1 (Homo sapiens, UniProt P49759); settings: binder
Sequence of CLK1 (P49759 whole entry): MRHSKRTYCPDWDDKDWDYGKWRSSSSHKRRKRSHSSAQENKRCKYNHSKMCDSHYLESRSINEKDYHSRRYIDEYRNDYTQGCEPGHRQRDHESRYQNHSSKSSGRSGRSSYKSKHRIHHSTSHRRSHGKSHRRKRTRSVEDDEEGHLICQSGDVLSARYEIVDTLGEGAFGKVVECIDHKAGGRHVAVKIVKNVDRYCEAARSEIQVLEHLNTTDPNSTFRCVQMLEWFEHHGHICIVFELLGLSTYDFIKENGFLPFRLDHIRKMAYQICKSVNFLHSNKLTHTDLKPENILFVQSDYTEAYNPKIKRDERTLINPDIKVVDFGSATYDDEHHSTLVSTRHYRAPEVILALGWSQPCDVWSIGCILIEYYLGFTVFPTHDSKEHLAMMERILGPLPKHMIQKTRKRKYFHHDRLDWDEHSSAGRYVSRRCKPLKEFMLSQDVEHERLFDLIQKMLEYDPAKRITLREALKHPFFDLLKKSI

Sequence of CLK1 (full-length) (Homo sapiens, UniProt P49759) (P49759 whole entry): as above
Sequence of CLK1 (H148-I484) (Homo sapiens, UniProt P49759, V324A) (P49759 148-484 V324A): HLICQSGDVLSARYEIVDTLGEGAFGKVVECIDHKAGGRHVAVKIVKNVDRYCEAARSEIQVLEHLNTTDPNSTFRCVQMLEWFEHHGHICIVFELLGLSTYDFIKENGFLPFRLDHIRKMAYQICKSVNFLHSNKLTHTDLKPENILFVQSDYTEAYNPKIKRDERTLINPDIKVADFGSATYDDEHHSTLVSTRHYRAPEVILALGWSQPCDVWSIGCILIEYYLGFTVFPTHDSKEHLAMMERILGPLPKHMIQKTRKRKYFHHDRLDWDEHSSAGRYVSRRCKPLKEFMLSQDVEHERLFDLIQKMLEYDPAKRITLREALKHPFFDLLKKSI
T1 sequence (P49761 134-484 A319V): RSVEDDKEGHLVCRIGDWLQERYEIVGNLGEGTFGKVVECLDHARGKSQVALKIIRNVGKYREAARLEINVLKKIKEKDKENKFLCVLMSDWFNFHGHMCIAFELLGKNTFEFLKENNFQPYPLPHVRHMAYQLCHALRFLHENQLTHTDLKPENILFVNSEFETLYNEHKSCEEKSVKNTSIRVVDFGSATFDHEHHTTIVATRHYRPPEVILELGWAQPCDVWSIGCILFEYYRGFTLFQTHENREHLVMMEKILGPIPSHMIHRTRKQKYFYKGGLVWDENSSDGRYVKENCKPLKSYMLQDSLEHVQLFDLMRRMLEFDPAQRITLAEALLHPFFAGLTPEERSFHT
Sequence of CLK1 (full-length) (Homo sapiens, UniProt P49759, V324A) (P49759 whole entry V324A): as the sequence (P49759 whole entry) above, with V324A counted along it
T2 sequence (P49759 148-484): as the sequence (P49759 148-484 V324A) above, with A177V counted along it
T3 sequence (P49761 134-484): as the sequence (P49761 134-484 A319V) above, with V186A counted along it
Sequence of CLK3 (P49761 whole entry): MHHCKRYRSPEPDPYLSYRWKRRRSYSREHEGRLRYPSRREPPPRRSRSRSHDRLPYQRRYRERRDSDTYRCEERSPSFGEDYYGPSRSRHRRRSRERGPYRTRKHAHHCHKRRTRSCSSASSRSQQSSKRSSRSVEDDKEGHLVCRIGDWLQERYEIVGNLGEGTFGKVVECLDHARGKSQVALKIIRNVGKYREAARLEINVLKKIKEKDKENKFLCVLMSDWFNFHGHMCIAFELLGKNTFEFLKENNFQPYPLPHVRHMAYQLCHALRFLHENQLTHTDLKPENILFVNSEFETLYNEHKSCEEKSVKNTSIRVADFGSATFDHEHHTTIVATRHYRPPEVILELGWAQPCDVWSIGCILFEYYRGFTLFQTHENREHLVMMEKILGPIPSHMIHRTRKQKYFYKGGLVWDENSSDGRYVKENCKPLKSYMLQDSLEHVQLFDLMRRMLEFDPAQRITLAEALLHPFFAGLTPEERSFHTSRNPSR

ΔTm A319V CLK3 (CLK3 (R134-T484) [1]) [°C] | ΔTm wild type CLK1 (CLK1 (H148-I484) [2]) [°C] | ΔTm wild type CLK3 (CLK3 (R134-T484) [3]) [°C] | ΔTm V324A CLK1 (CLK1 (H148-I484) [4]) [°C] | Ki (CLK1 (full-length) [8]) [nM] | SMILES | further results
5.0 | 6.1 | 1.1 | 1.8 |  | CN1CCC2(CC1)NC(=O)c1c(c3ccc(Cl)c(Cl)c3n1C)C2C#N (stereo not shown) [compound 16, KH-CARB10] | 
 |  |  |  | 3930 ± 1100 | CCOc1ccc2c(-c3ccnc(Nc4cc(OC)cc(C(F)(F)F)c4)n3)cnn2n1 [compound 8, GW807982X] | Ki (CLK1 (full-length) [5]): 36 ± 20 nM; wild type CLK1 (CLK1 (H148-I484) [6]): 9 °C; wild type CLK3 (CLK3 (R134-T484) [7]): 2.0 °C
5.5 | 9.5 | 3.6 | 3.0 |  | O=c1c2c(ccc3nc(-c4cccnc4)sc32)ncn1C1CC1 [compound 12] | 
 |  |  |  | 2.3 ± 0.1 | CN1CCN(C(=O)C(C)(C)c2ccc(C(=O)Nc3cn4cc(-c5ccncc5)ccc4n3)cc2)CC1 [compound 10, T3-CLK] | Ki (CLK1 (full-length) [5]): 1 ± 0.1 nM
9.2 | 10.3 | 3.4 | 3.8 |  | COC(=N)c1nc2ccc3ncnc(Nc4ccc(OC)cc4F)c3c2s1 [compound 13, ETH1610] | 
4.7 | 9.4 | 1.7 | 5.1 |  | O=C1NCc2ccc3c(-c4cccc(Cl)c4)c[nH]c3c21 [compound 11] | 
8.6 | 6.8 | 1.8 | 3.9 |  | CC(=O)c1cccc(-c2cnc3ccc(NC(CO)C(C)C)nn23)c1 (stereo not shown) [compound 9] | 
 |  |  |  |  | CN[C@@H]1C[C@H]2O[C@@](C)([C@@H]1OC)n1c3ccccc3c3c4c(c5c6ccccc6n2c5c31)C(=O)NC4 [compound 6, staurosporine] | wild type CLK3 (CLK3 (R134-T484) [7]): 4.7 °C
14.1 | 13.1 | 7.9 | 9.7 |  | Nc1ncnc2c1c(I)cn2C1OC(CO)C(O)C1O (stereo not shown) [compound 18, iodotubercidin] | 
 |  |  |  | 5450 ± 790 | O=c1c2c(ccc3nc(-c4cccnc4)sc32)ncn1C1CC1 [compound 12, FC162] | Ki (CLK1 (full-length) [5]): 1860 ± 1200 nM
 |  |  |  |  | CCOC(=O)c1c(/C(C#N)=C\N)c2ccc(Cl)c(Cl)c2n1C [compound 7, KH-CB19] | wild type CLK1 (CLK1 (H148-I484) [6]): 15.0 °C; wild type CLK3 (CLK3 (R134-T484) [7]): 8.6 °C
17.3 | 18.7 | 13.7 | 13.7 |  | CN1CCN(C(=O)C(C)(C)c2ccc(C(=O)Nc3cn4cc(-c5ccncc5)ccc4n3)cc2)CC1 [compound 10] | 
8.27 | 9.3 | 1.5 | 5.94 |  | Cn1cc(-c2ccc3occ(-c4cccc(-c5ccncc5)c4)c3n2)cn1 [compound 5, MU1210] | 
10.1 | 12.3 | 4.8 | 7.8 |  | Cn1cc(-c2ccc3occ(-c4cccc(Oc5ccccc5)c4)c3n2)cn1 [compound 14, VN412] | 
 |  |  |  | 2640 ± 1800 | CC(=O)c1cccc(-c2cnc3ccc(NC(CO)C(C)C)nn23)c1 (stereo not shown) [compound 9, K00518] | Ki (CLK1 (full-length) [5]): 943 ± 640 nM
 |  |  |  | 878 ± 46 | O=C1NCc2ccc3c(-c4cccc(Cl)c4)c[nH]c3c21 [compound 11, KuWal151] | Ki (CLK1 (full-length) [5]): 228 ± 80 nM
5.8 | 7.4 | 1.2 |  | 2810 ± 670 | Cn1c2c(c3ccc(Cl)c(Cl)c31)C(C#N)C1(CCNCC1)NC2=O (racemic) [compound 3, KH-CARB13] | Ki (CLK3 (R134-T484) [9]): 850 ± 300 nM; ΔTm (°C) 3 (CLK3): 2.2 degC; ΔTm (°C) 3 (CLK1): 7.0 degC
